These results are taken from patent US9561231B2 (AbbVie Inc., priority 2012, dated 2017).

Read-outs that look alike come from different tables or passages of the source.

Assay [1] concerns the target T1, first (BD1: amino acids K57-E168) bromodomain of BRD4 (Homo sapiens, UniProt O60885).
T1 construct: His-tagged first (BD1: amino acids K57-E168)
As to the kind of experiment: TR-FRET bromodomain binding assay, BRD4 BD1. The settings on record: Ki calculated from IC50, probe Kd and probe concentration, read-out: TR-FRET Binding Ki: BRD4 (BDI_K57-E168). Summed up:
(§1)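 His-tagged BRD4 BD1 (K57-E168) or BD2 ([…]) displacing an Alexa647-labelled BET-inhibitor probe in 20 mM sodium phosphate pH 6.0, 50 mM NaCl, 1 mM EDTA, 0.01% Triton X-100, 1 mM DTT.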

Assay [2] has as its target T2, second (BD2: amino acids E352-E168) bromodomain of BRD4 (Homo sapiens, UniProt O60885).
T2 construct: protocol
The assay can be described thus: TR-FRET bromodomain binding assay, BRD4 BD2. The note with it: Ki calculated from IC50, probe Kd and probe concentration, read-out: TR-FRET Binding Ki: BRD4 (BDII_E352-M457). Summed up: as §1

The subject of assay [3] is breast cancer cell line MX-1. The assay can be described thus: MX-1 cell line proliferation assay (3-day). Type of assay: cell-based. The note with it: Homo sapiens, MX1, MX-1 cells, Cell Titer Glo, read-out: Cellular proliferation: EC50. Summed up:
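EC50 derived by sigmoidal fitting of Cell Titer Glo signal relative to DMSO controls. Compound, 3 μM down to 0.0001 μM final in 3-fold steps, was added to adhered MX-1 cells (5000/well, RPMI + 10% FBS) for a 3-day incubation at 37° C.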
On the technique in general: ATP-based viability assays read luminescence as a measure of living cells.

Setting [4] is: TR-FRET assay protocol (A-G, compound concentration range).
[5] abbreviates: TR-FRET assay protocol (D, E or G) per compound.

For `CNC(=O)c1ccc(-c2cc(=O)n(C)nc2-c2ccccc2Oc2ccccc2)cc1` [Example 127, N-methyl-4-[1-methyl-6-oxo-3-(2-phenoxyphenyl)-1,6-dihydropyridazin-4-yl]benzamide], the values for the Ki in assay [1] (setting [4]) and in assay [2] (setting [4]) were 0.249 µM and 0.139 µM, respectively. Moreover, the EC50 in assay [3] (72 h incubation) is > 3 µM.

`CCOC(=O)C1CCN(c2cc(=O)n(C)nc2-c2ccccc2Oc2ccccc2)C1` (stereo not drawn) [Example 49, ethyl 1-[1-methyl-6-oxo-3-(2-phenoxyphenyl)-1,6-dihydropyridazin-4-yl]pyrrolidine-3-carboxylate]: the Ki in assay [1] (setting [4]) is 6.68 µM; in assay [2] (setting [4]) it was 0.748 µM. In assay [3] (72 h incubation), the EC50 worked out at 7.11 µM.

Take `CCOc1cc(=O)n(C)cc1-c1cc(NS(=O)(=O)CC)ccc1O[C@H]1CC[C@H](NC(=O)OC(C)(C)C)CC1` [Example 395, tert-butyl(trans-4-{2-(4-ethoxy-1-methyl-6-oxo-1,6-dihydropyridin-3-yl)-4-[(ethylsulfonyl)amino]phenoxy}cyclohexyl)carbamate]: the Ki in assay [1] (setting [5]) was 0.105 µM; in assay [2] (setting [5]), 0.221 µM. Besides, the EC50 in assay [3] (72 hours with compound) was found to be 0.479 µM.

As for `CCOc1cc(=O)n(C)cc1-c1cc(NC(=O)c2ccccn2)ccc1Oc1ccc(F)cc1F` [Example 415, N-[4-(2,4-difluorophenoxy)-3-(4-ethoxy-1-methyl-6-oxo-1,6-dihydropyridin-3-yl)phenyl]pyridine-2-carboxamide], the Ki in assay [1] (setting [5]) is 0.0405 µM; in assay [2] (setting [5]), 0.0333 µM. Further, the EC50 in assay [3] (72 hours with compound) amounted to 0.279 µM.

Consider `CCNS(=O)(=O)c1ccc(Oc2ccccc2)c(-c2ccc(=O)n(C)c2)c1` [Example 255, N-ethyl-3-(1-methyl-6-oxo-1,6-dihydropyridin-3-yl)-4-phenoxybenzenesulfonamide], for which the figures for the Ki in assay [1] (setting [4]) and in assay [2] (setting [4]) were 0.635 µM and 0.142 µM, respectively. For the same compound, the EC50 in assay [3] (72 h incubation) was > 3 µM.

On to `CCS(=O)(=O)Nc1ccc(Oc2ccc(F)cc2F)c(-c2cn(C)c(=O)cc2OCc2ccc(CN3CCOCC3)cc2)c1` [Example 315, N-[4-(2,4-difluorophenoxy)-3-(1-methyl-4-{[4-(morpholin-4-ylmethyl)benzyl]oxy}-6-oxo-1,6-dihydropyridin-3-yl)phenyl]ethanesulfonamide], for which the Ki in assay [1] (setting [4]) is 0.00251 µM; in assay [2] (setting [4]) it was 0.00039 µM. In assay [3] (72 h incubation), the EC50 turned out to be 0.0556 µM.

On to `Cn1cc(-c2cc(NS(C)(=O)=O)ccc2OC2CCCCC2)ccc1=O` [Example 247, N-[4-(cyclohexyloxy)-3-(1-methyl-6-oxo-1,6-dihydropyridin-3-yl)phenyl]methanesulfonamide], for which the Ki in assay [1] (setting [4]) is 0.0224 µM; in assay [2] (setting [4]), 0.194 µM. Also, the EC50 in assay [3] (72 h incubation) was found to be 0.425 µM.

For `Cn1cc(-c2cc(NS(C)(=O)=O)ccc2Oc2cccc(F)c2)ccc1=O` [Example 246, N-[4-(3-fluorophenoxy)-3-(1-methyl-6-oxo-1,6-dihydropyridin-3-yl)phenyl]methanesulfonamide], the Ki in assay [1] (setting [4]) was 0.0431 µM; in assay [2] (setting [4]) it was 0.132 µM. The EC50 in assay [3] (72 h incubation) was 0.238 µM.

Regarding `CCOc1cc(=O)n(C)cc1-c1cc(S(=O)(=O)N2CCc3ccccc32)ccc1Oc1ccc(F)cc1F` [Example 419, 5-[2-(2,4-difluorophenoxy)-5-(2,3-dihydro-1H-indol-1-ylsulfonyl)phenyl]-4-ethoxy-1-methylpyridin-2(1H)-one], the Ki in assay [1] (setting [5]) was 0.0253 µM; in assay [2] (setting [5]), 0.00284 µM. Also, in assay [3] (72 hours with compound), the EC50 is 1 µM.

For `COc1cc(-c2cc(=O)n(C)nc2-c2cc(NS(C)(=O)=O)ccc2Oc2ccccc2)ccn1` [Example 58, N-{3-[4-(2-methoxypyridin-4-yl)-1-methyl-6-oxo-1,6-dihydropyridazin-3-yl]-4-phenoxyphenyl}methanesulfonamide], the Ki in assay [1] (setting [4]) was 0.264 µM; in assay [2] (setting [4]), 0.0635 µM. Further, the EC50 in assay [3] (72 h incubation) is 0.444 µM.

On to `CCOc1cc(=O)n(C)cc1-c1cc(S(=O)(=O)CC)ccc1Oc1ccc(OC(F)(F)F)cc1` [Example 377, 4-ethoxy-5-{5-(ethylsulfonyl)-2-[4-(trifluoromethoxy)phenoxy]phenyl}-1-methylpyridin-2(1H)-one], for which the values for the Ki in assay [1] (setting [5]) and in assay [2] (setting [5]) were 0.0534 µM and 0.00641 µM, respectively. Besides, the EC50 in assay [3] (72 hours with compound) is 0.0924 µM.

Turning to `CCS(=O)(=O)c1ccc(Oc2ccc(F)cc2F)c(-c2cn(C)c(=O)cc2OC2COC2)c1` [Example 318, 5-[2-(2,4-difluorophenoxy)-5-(ethylsulfonyl)phenyl]-1-methyl-4-(oxetan-3-yloxy)pyridin-2(1H)-one], the Ki was 0.156 µM in assay [1] (setting [4]) and 0.0153 µM in assay [2] (setting [4]). The EC50 in assay [3] (72 h incubation) was determined as 0.0427 µM.

For `Cc1cc(-c2cc(NS(C)(=O)=O)ccc2Oc2ccc(F)cc2F)c[nH]c1=O` [Example 263, N-[4-(2,4-difluorophenoxy)-3-(5-methyl-6-oxo-1,6-dihydropyridin-3-yl)phenyl]methanesulfonamide], the results for the Ki in assay [1] (setting [4]) and in assay [2] (setting [4]) were 0.0488 µM and 0.121 µM, respectively. Also, in assay [3] (72 h incubation), the EC50 was found to be 0.304 µM.

Regarding `Cn1cc(-c2cc(NS(C)(=O)=O)ccc2Oc2cccc(Cl)c2)ccc1=O` [Example 243, N-[4-(3-chlorophenoxy)-3-(1-methyl-6-oxo-1,6-dihydropyridin-3-yl)phenyl]methanesulfonamide], the inhibitory constant (Ki) in assay [1] (setting [4]) is 0.115 µM; in assay [2] (setting [4]) it was 0.257 µM. In assay [3] (72 h incubation), the EC50 came out at 0.279 µM.

As to `Cn1nc(-c2cc(CNC(=O)C(F)(F)F)ccc2Oc2ccccc2)ccc1=O` [Example 17, 2,2,2-trifluoro-N-[3-(1-methyl-6-oxo-1,6-dihydropyridazin-3-yl)-4-phenoxybenzyl]acetamide], the values for the Ki in assay [1] (setting [4]) and in assay [2] (setting [4]) were 0.513 µM and 4.52 µM, respectively. Further, in assay [3] (72 h incubation), the EC50 amounted to 2.63 µM.

In the case of `Cn1cc(-c2cc(NS(C)(=O)=O)ccc2Oc2cc(F)cc(F)c2)ccc1=O` [Example 242, N-[4-(3,5-difluorophenoxy)-3-(1-methyl-6-oxo-1,6-dihydropyridin-3-yl)phenyl]methanesulfonamide], the Ki is 0.045 µM in assay [1] (setting [4]) and 0.338 µM in assay [2] (setting [4]). Further, the EC50 in assay [3] (72 h incubation) stood at 0.556 µM.

As for `CCS(=O)(=O)Nc1ccc(Oc2ccc(F)cc2F)c(-c2cn(C)c(=O)cc2OCC2CCN(C(=O)OC(C)(C)C)CC2)c1` [Example 324, tert-butyl 4-{[(5-{2-(2,4-difluorophenoxy)-5-[(ethylsulfonyl)amino]phenyl}-1-methyl-2-oxo-1,2-dihydropyridin-4-yl)oxy]methyl}piperidine-1-carboxylate], the Ki in assay [1] (setting [4]) was 0.045 µM; in assay [2] (setting [4]), 0.0181 µM. Further, the EC50 in assay [3] (72 h incubation) turned out to be 0.436 µM.

On to `CCOc1cc(=O)n(C)cc1-c1cc(NS(=O)(=O)CC)ccc1OC1CCC1` [Example 384, N-[4-(cyclobutyloxy)-3-(4-ethoxy-1-methyl-6-oxo-1,6-dihydropyridin-3-yl)phenyl]ethanesulfonamide], for which the Ki in assay [1] (setting [5]) is 0.0653 µM; in assay [2] (setting [5]), 0.146 µM. In addition, the EC50 in assay [3] (72 hours with compound) is 0.237 µM.

In the case of `CCOC(=O)Nc1ccc(Oc2ccccc2)c(-c2nn(C)c(=O)cc2OC)c1` [Example 29, ethyl[3-(4-methoxy-1-methyl-6-oxo-1,6-dihydropyridazin-3-yl)-4-phenoxyphenyl]carbamate], the values for the Ki in assay [1] (setting [4]) and in assay [2] (setting [4]) were 1.37 µM and 0.95 µM, respectively. In addition, the EC50 in assay [3] (72 h incubation) was 4.53 µM.

`CCOc1cc(=O)n(C)cc1-c1cc(NC(=O)c2ccc(NC(C)=O)cc2)ccc1Oc1ccc(F)cc1F` [Example 300, 4-(acetylamino)-N-[4-(2,4-difluorophenoxy)-3-(4-ethoxy-1-methyl-6-oxo-1,6-dihydropyridin-3-yl)phenyl]benzamide]: the figures for the Ki in assay [1] (setting [4]) and in assay [2] (setting [4]) were 0.0256 µM and 0.0246 µM, respectively. In assay [3] (72 h incubation), the EC50 was 0.291 µM.

On to `Cn1nc(-c2ccccc2Oc2ccccc2)c(-c2ccc(S(N)(=O)=O)cc2)cc1=O` [Example 112, 4-[1-methyl-6-oxo-3-(2-phenoxyphenyl)-1,6-dihydropyridazin-4-yl]benzenesulfonamide], for which the inhibitory constant (Ki) is 0.138 µM in assay [1] (setting [4]) and 0.181 µM in assay [2] (setting [4]). The EC50 in assay [3] (72 h incubation) stood at 1.28 µM.

With `COC(=O)/C=C/c1cc(=O)n(C)nc1-c1ccccc1Oc1ccccc1` [Example 219, methyl (2E)-3-[1-methyl-6-oxo-3-(2-phenoxyphenyl)-1,6-dihydropyridazin-4-yl]prop-2-enoate], the Ki in assay [1] (setting [4]) was 7.25 µM; in assay [2] (setting [4]), 0.308 µM. Further, the EC50 in assay [3] (72 h incubation) is 5.5 µM.

For `CCOc1cc(=O)n(C)cc1-c1cc(S(=O)(=O)CC)ccc1Oc1ccc(C#N)cc1` [Example 378, 4-[2-(4-ethoxy-1-methyl-6-oxo-1,6-dihydropyridin-3-yl)-4-(ethylsulfonyl)phenoxy]benzonitrile], the values for the Ki in assay [1] (setting [5]) and in assay [2] (setting [5]) were 0.113 µM and 0.0317 µM, respectively. The EC50 in assay [3] (72 hours with compound) came out at 0.103 µM.

Regarding `COc1cc(=O)n(C)cc1-c1ccccc1Oc1ccccc1` [Example 258, 4-methoxy-1-methyl-5-(2-phenoxyphenyl)pyridin-2(1H)-one], the Ki in assay [1] (setting [4]) is 0.73 µM; in assay [2] (setting [4]) it was 0.382 µM. Besides, the EC50 in assay [3] (72 h incubation) came out at 1.51 µM.

The term Ki denotes the equilibrium dissociation constant of an inhibitor or competing ligand from its target.
